Measured values reported in article PMC5773651, “Customised in vitro model to detect human metabolism-dependent idiosyncratic drug-induced liver injury” (Archives of Toxicology, 2017).
Like-named read-outs stand apart in the source and are kept apart here. Marks after values point to notes of the source that are not given here.

Experiments:
[1] = tested on: HepG2 cells transduced with AdCYP3A4; assay: Cell viability (PI), IC50, AdCYP3A4-HepG2; format: cell-based; details: Homo sapiens, unit inferred, tested range in µM
Procedure: (§1) For subculturing purposes, cells were detached by treatment with 0.25% trypsin/0.02% EDTA at 37 °C. For the adenovirus infection studies, cells were seeded in 96-well plates (5000 cells/well) and adenovirus-containing medium was added 48 h later. After 24 h, cells were transferred to the adenovirus-free medium and cultured for an additional 24-h period prior to the incubations performed with the test chemicals. To optimise the expression of the functional enzymes in the adenovirus-transduced HepG2 (Ad-HepG2) cells, different doses (MOI, multiplicity of infection, defined as plaque formation units per cell) of each adenovirus were tested.
(§2) The drugs included in the study were chosen based on previous information about their hepatotoxicity. Information on the potential mechanisms implicated in the toxicity of each compound and the major enzymes involved in their metabolism is summarised in Table 1. HepG2 or Ad-HepG2 (48 h post-infection) cells were exposed for 24 h to eight concentrations of the tested compounds. Each experimental condition was repeated independently three times (with three wells measured each time). The stock solutions of compounds were prepared in DMSO and were conveniently diluted in the culture medium to obtain the desired final concentrations. The final DMSO concentration in the culture medium was 0.5% (v/v), and the control cultures were treated with the same amount of solvent.
(§3) Following treatments, cells were simultaneously loaded with several fluorescent dyes to measure multiple biomarkers of cell toxicity. […] Information about the probes is summarised in Supplementary Table S2.
(§4) After incubating with dyes, cells were imaged by the Scan^R system (Olympus, Germany). Dyes were excited, and their fluorescence was monitored at the excitation and emission wavelengths at appropriate filter settings. The collected images were analysed using the Scan^R analysis module, which allows the simultaneous quantification of subcellular structures that are stained by different fluorescent probes.

[2] = tested on: HepG2 cells transduced with AdCYP3A4; assay: HCS hepatotoxicity assay (MEC, TR), AdCYP3A4-HepG2; format: cell-based, human; details: 24 h; for TR: TR = 100 x Cmax/lowest MEC; for MEC Apoptosis / MEC Calcium / MEC MMP / MEC Mitochondrial superoxide / MEC ROS: unit not given, tested range in µM
HepG2 cells [3] = assay: Cell viability (PI), IC50, control HepG2 cells; format: cell-based; details: Homo sapiens; control non-transduced HepG2; 24 h; unit inferred, tested range in µM; read-out: IC50 (cell viability), C
HepG2 cells [4] = details: human, 24 h
Procedure: as §1, §2, §3, §4

[5] = cited from earlier work; for Bioactivation / Enzyme: major enzyme(s) involved in the bioactivation (denoted as *) or detoxification of the drug: previous information; for Toxicity (mechanisms of toxicity): ref Ashrafian et al. [2007], Donato et al. [2009], Fromenty and Pessayre [1997], Rolo et al. [2000], Tolosa et al. [2012b]
[6] = ref Atienzar et al. ([2014]), Garside et al. ([2014]), Tolosa et al. ([2012b]); cited from earlier work
[7] = tested on: HepG2 cells transduced with AdCYP2C9; assay: Cell viability (PI), IC50, AdCYP2C9-HepG2; format: cell-based; details: Homo sapiens, unit inferred, tested range in µM
[8] = tested on: HepG2 cells transduced with AdCYP2C9; assay: HCS hepatotoxicity assay (MEC, TR), AdCYP2C9-HepG2; format: cell-based, human; details: 24 h; for TR: TR = 100 x Cmax/lowest MEC; for MEC Apoptosis / MEC Calcium / MEC MMP / MEC Mitochondrial superoxide / MEC ROS: unit inferred, tested range in µM
Procedure: as §1, §2, §3, §4

[9] = tested on: HepG2 cells co-transduced with AdCYP3A4 and AdUGT2B7; assay: HCS hepatotoxicity assay (MEC, TR), AdCYP3A4 + AdUGT2B7 HepG2; format: cell-based, human; details: 24 h; for TR: TR = 100 x Cmax/lowest MEC; for MEC Apoptosis / MEC Calcium / MEC MMP / MEC Mitochondrial superoxide / MEC ROS: unit not given, tested range in µM
[10] = tested on: HepG2 cells co-transduced with AdCYP3A4 and AdCYP2C9; assay: HCS hepatotoxicity assay (MEC, TR), AdCYP3A4 + AdCYP2C9 HepG2; format: cell-based, human; details: 24 h; for TR: TR = 100 x Cmax/lowest MEC; for MEC Apoptosis / MEC Calcium / MEC MMP / MEC Mitochondrial superoxide / MEC ROS: unit not given, tested range in µM
[11] = tested on: HepG2 cells transduced with CYP3A4 in the presence of CYP2C19; assay: HCS hepatotoxicity assay (MEC, TR), AdCYP3A4 + AdCYP2C19 HepG2; format: cell-based, human; details: CYP3A4-4X + CYP2C19-1X, 24 h
From the text: For all the compounds and studied parameters, the MEC led to at least a 20% variation in fluorescence intensity or in the corresponding morphological parameter compared to the untreated cultures.

[12] = tested on: HepG2 cells transduced with AdCYP2C19; assay: Cell viability (PI), IC50, AdCYP2C19-HepG2; format: cell-based; details: Homo sapiens, unit inferred, tested range in µM
Procedure: as §1, §2, §3, §4

[13] = ADV CYP3A4 x1, 24 h, read-out: IC50 (cell viability), ADV dose x1
[14] = ADV CYP3A4 x4, 24 h, read-out: IC50 (cell viability), ADV dose x4
[15] = ADV CYP3A4 x10, 24 h, read-out: IC50 (cell viability), ADV dose x10
[16] = ADV CYP2C9 x1, 24 h, read-out: IC50 (cell viability), ADV dose x1
[17] = ADV CYP2C9 x4, 24 h, read-out: IC50 (cell viability), ADV dose x4
[18] = ADV CYP2C9 x10, 24 h, read-out: IC50 (cell viability), ADV dose x10
[19] = unit not given, tested range in µM

Cc1c(C)c2c(c(C)c1O)CCC(C)(COc1ccc(CC3SC(=O)NC3=O)cc1)O2 (stereo not drawn) [Troglitazone]
IC50 [1, 13]: 86 µM
IC50 [1, 14]: 76 µM
IC50 [1, 15]: < 50 µM
TR ([2]; AdCYP 3A4 1x): 12.8
MEC Apoptosis ([2]; AdCYP 3A4 1x): 100
MEC Calcium ([2]; AdCYP 3A4 1x): 75
MEC MMP ([2]; AdCYP 3A4 1x): 200
MEC Mitochondrial superoxide ([2]; AdCYP 3A4 1x): 200
MEC ROS ([2]; AdCYP 3A4 1x): 50
TR ([2]; AdCYP 3A4 4x): 12.8
MEC Apoptosis ([2]; AdCYP 3A4 4x): 75
MEC Calcium ([2]; AdCYP 3A4 4x): 50
MEC MMP ([2]; AdCYP 3A4 4x): 200
MEC Mitochondrial superoxide ([2]; AdCYP 3A4 4x): 75
MEC ROS ([2]; AdCYP 3A4 4x): 50
TR ([2]; AdCYP 3A4 10x): 12.8
MEC Apoptosis ([2]; AdCYP 3A4 10x): 50
MEC Calcium ([2]; AdCYP 3A4 10x): 50
MEC MMP ([2]; AdCYP 3A4 10x): 150
MEC Mitochondrial superoxide ([2]; AdCYP 3A4 10x): 50
MEC ROS ([2]; AdCYP 3A4 10x): 50
IC50 (HepG2 cells [3]): 213 µM
MEC Apoptosis (HepG2 cells [4]): 100 µM
MEC Calcium (HepG2 cells [4]): 100
MEC MMP (HepG2 cells [4]): 200
MEC Mitochondrial superoxide (HepG2 cells [4]): 200
MEC ROS (HepG2 cells [4]): 100
TR (HepG2 cells [4]): 6.4
Bioactivation [5]: Yes
Enzyme: major enzyme(s) involved in the bioactivation (denoted as *) or detoxification of the drug [5]: CYP3A4*
Toxicity (mechanisms of toxicity) [5]: MI, OS
DILI category ([5]; ref Gustafsson et al. ([2014])): Severe

O=C(O)COc1ccc(C(=O)c2cccs2)c(Cl)c1Cl [Tienilic acid]
Cmax [6]: 82.7 µM
IC50 (HepG2 cells [3]): > 1200 µM
MEC Apoptosis (HepG2 cells [4]): 1200 µM
MEC Calcium (HepG2 cells [4]): 800
MEC MMP (HepG2 cells [4]): >1200
MEC Mitochondrial superoxide (HepG2 cells [4]): 800
MEC ROS (HepG2 cells [4]): 1200
TR (HepG2 cells [4]): 10.3
IC50 [7, 16]: > 1200 µM
IC50 [7, 17]: 1160 µM
IC50 [7, 18]: 846 µM
TR ([8]; AdCYP 2C9 1x): 13.8
MEC Apoptosis ([8]; AdCYP 2C9 1x): 600 µM
MEC Calcium ([8]; AdCYP 2C9 1x): 600 µM
MEC MMP ([8]; AdCYP 2C9 1x): > 1200 µM
MEC Mitochondrial superoxide ([8]; AdCYP 2C9 1x): 600 µM
MEC ROS ([8]; AdCYP 2C9 1x): 800 µM
TR ([8]; AdCYP 2C9 4x): 20.7
MEC Apoptosis ([8]; AdCYP 2C9 4x): 400 µM
MEC Calcium ([8]; AdCYP 2C9 4x): 400 µM
MEC MMP ([8]; AdCYP 2C9 4x): > 1200 µM
MEC Mitochondrial superoxide ([8]; AdCYP 2C9 4x): 400 µM
MEC ROS ([8]; AdCYP 2C9 4x): 600 µM
TR ([8]; AdCYP 2C9 10x): 41.3
MEC Apoptosis ([8]; AdCYP 2C9 10x): 200 µM
MEC Calcium ([8]; AdCYP 2C9 10x): 200 µM
MEC MMP ([8]; AdCYP 2C9 10x): > 1200 µM
MEC Mitochondrial superoxide ([8]; AdCYP 2C9 10x): 400 µM
MEC ROS ([8]; AdCYP 2C9 10x): 400 µM
Bioactivation [5]: Yes
Enzyme: major enzyme(s) involved in the bioactivation (denoted as *) or detoxification of the drug [5]: CYP2C9*
Toxicity (mechanisms of toxicity) [5]: CB, OS

O=C(O)Cc1ccccc1Nc1c(Cl)cccc1Cl [Diclofenac]
Cmax [6]: 4.2 µM
IC50 [1, 13]: 126 µM
IC50 [1, 14]: 99 µM
IC50 [1, 15]: 2.8 µM
TR ([2]; AdCYP 3A4 1x): 42
MEC Apoptosis ([2]; AdCYP 3A4 1x): 125
MEC Calcium ([2]; AdCYP 3A4 1x): 10
MEC MMP ([2]; AdCYP 3A4 1x): 125
MEC Mitochondrial superoxide ([2]; AdCYP 3A4 1x): 50
MEC ROS ([2]; AdCYP 3A4 1x): 10
TR ([2]; AdCYP 3A4 4x): 84
MEC Apoptosis ([2]; AdCYP 3A4 4x): 10
MEC Calcium ([2]; AdCYP 3A4 4x): 10
MEC MMP ([2]; AdCYP 3A4 4x): 125
MEC Mitochondrial superoxide ([2]; AdCYP 3A4 4x): 5
MEC ROS ([2]; AdCYP 3A4 4x): 5
TR ([9]; CYP3A4-1X + UGT2B7): 84
MEC Apoptosis ([9]; CYP3A4-1X + UGT2B7): 5
MEC Calcium ([9]; CYP3A4-1X + UGT2B7): 10
MEC MMP ([9]; CYP3A4-1X + UGT2B7): 50
MEC Mitochondrial superoxide ([9]; CYP3A4-1X + UGT2B7): 5
MEC ROS ([9]; CYP3A4-1X + UGT2B7): 5
TR ([9]; CYP3A4-4X + UGT2B7): 84
MEC Apoptosis ([9]; CYP3A4-4X + UGT2B7): 5
MEC Calcium ([9]; CYP3A4-4X + UGT2B7): 5
MEC MMP ([9]; CYP3A4-4X + UGT2B7): 50
MEC Mitochondrial superoxide ([9]; CYP3A4-4X + UGT2B7): 5
MEC ROS ([9]; CYP3A4-4X + UGT2B7): 5
IC50 (HepG2 cells [3]): 167 µM
TR ([10]; CYP3A4-1X + CYP2C9-1X): 84
MEC Apoptosis ([10]; CYP3A4-1X + CYP2C9-1X): 125
MEC Calcium ([10]; CYP3A4-1X + CYP2C9-1X): 10
MEC MMP ([10]; CYP3A4-1X + CYP2C9-1X): 125
MEC Mitochondrial superoxide ([10]; CYP3A4-1X + CYP2C9-1X): 50
MEC ROS ([10]; CYP3A4-1X + CYP2C9-1X): 5
TR ([10]; CYP3A4-4X + CYP2C9-1X): 84
MEC Apoptosis ([10]; CYP3A4-4X + CYP2C9-1X): 10
MEC Calcium ([10]; CYP3A4-4X + CYP2C9-1X): 10
MEC MMP ([10]; CYP3A4-4X + CYP2C9-1X): 125
MEC Mitochondrial superoxide ([10]; CYP3A4-4X + CYP2C9-1X): 5
MEC ROS ([10]; CYP3A4-4X + CYP2C9-1X): 5
MEC Apoptosis (HepG2 cells [4]): 125 µM
MEC Calcium (HepG2 cells [4]): 50
MEC MMP (HepG2 cells [4]): 250
MEC Mitochondrial superoxide (HepG2 cells [4]): 125
MEC ROS (HepG2 cells [4]): 50
TR (HepG2 cells [4]): 8.4
IC50 [7, 16]: 42.1 µM
IC50 [7, 17]: 51.6 µM
IC50 [7, 18]: 15.5 µM
TR ([11]; TR = 100 x Cmax/lowest MEC): 42
MEC Apoptosis [11, 19]: 50
MEC Calcium [11, 19]: 50
MEC MMP [11, 19]: 125
MEC Mitochondrial superoxide [11, 19]: 10
MEC ROS [11, 19]: 10
IC50 ([12]; ADV CYP2C19 x1, 24 h, read-out: IC50 (cell viability), ADV dose x1): 140 µM
IC50 ([12]; ADV CYP2C19 x4, 24 h, read-out: IC50 (cell viability), ADV dose x4): 158 µM
IC50 ([12]; ADV CYP2C19 x10, 24 h, read-out: IC50 (cell viability), ADV dose x10): 11.5 µM
